According to patent publication US12390472B2 (SUZHOU SINOVENT PHARMACEUTICALS CO., LTD., priority 2018, dated 2025):
Read-outs that look alike come from different tables or passages of the source.

Legend:
[1] = molecular target: EZH2 (Y641N) (Homo sapiens (Human), UniProt Q15910, Y641N); assay: Test on EZH2 (Y641N) inhibitory activity; format: biochemical
Description: (§1) Compounds at different concentrations were dissolved in 100% DMSO and transferred to test plates, and the final concentration of DMSO was 1%. Enzyme solution and substrate SAM solution were prepared with 1-fold reaction buffer (optimized Tris buffer). 5 uL of enzyme solution was added to the test plate and wells only added with 5 uL of reaction buffer were used as negative control wells. After incubation at room temperature for 15 min, the plate was added with 5 uL of substrate solution per well to initiate the reaction, and then incubated at room temperature for 60 min. 5 uL of receptor solution was added and the plate was incubated away from light at room temperature for 60 min. 10 uL of donor solution was added and the plate was incubated away from light at room temperature for 30 min. The endpoint values were read on the Envision and the IC50 was calculated.
(§2) Data were fitted by GraphPad Prism 5 software and inhibition rate was calculated according to equation (1) Inh %=(Max−Signal)/(Max−Min)×100 (1)
(§3) IC50 was calculated using equation (2) Y=Bottom+(Top−Bottom)/(1+10^((Log IC50−X)×Hill Slope))
(§4) Y: inhibition rate; X: concentration of the compound

[2] = molecular target: EZH2 (Y641F) (Homo sapiens (Human), UniProt Q15910, Y641F); assay: Test on EZH2 (Y641F) inhibitory activity; format: biochemical
Description: as §1, §2, §3, §4

[3] = molecular target: EZH2 (wt) (Homo sapiens (Human), UniProt Q15910); assay: Test on EZH2 (wt) inhibitory activity ([3H]-SAM Flashplate); format: biochemical
Description: Protocols Compounds at different concentrations were dissolved in 100% DMSO and transferred to test plates, and the final concentration of DMSO was 1%. The enzyme solution and the mixture solution of peptide and [3H]-SAM were prepared with 1-fold reaction buffer. 10 uL of enzyme solution was added to the test plate and wells only added with 10 uL of reaction buffer were used as negative control wells. After incubation at room temperature for 15 min, the plate was added with 10 uL of the mixture solution of peptide and [3H]-SAM per well to initiate the reaction which lasts for 60 min at room temperature. The pre-cooled SAM was added to 1-fold reaction buffer to prepare a stop buffer. The reaction was stopped by adding 10 uL of stop buffer per well. 25 uL of solution was transferred from the reaction plate to Flashplate and incubated at room temperature for at least 1 h. The Flashplate was washed 3 times with dH2O+0.1% Tween-20. The plate was read by Microbeta.
as §2, §3, §4

[4] = tested on: WSU-DLCL2 cells; assay: Experiment on WSU-DLCL2 cell proliferation (Calcein-AM); format: cell-based; conditions: Homo sapiens
Description: WSU-DLCL2 cells were plated in a 96-well plate and 100 uL of cells (a density of 1×10^5 cells/mL) and 50 uL of compound stock at 3-fold concentration was added to each well, and the final volume was 150 uL/well. After 6 days of culturing, on day 7, the cells in the well plate were mixed well by pipetting, and 50 uL of the cell suspension was pipetted to be tested for cell viability using Calcein-AM. 50 uL of the cell suspension was added to a 96-well plate coated by poly-D-Lysine, and then 50 uL of HBSS containing 2 uM Calcein-AM was added to make the final concentration of Calcein-AM 1 uM. After incubation for 10 min at room temperature, the cells were rapidly centrifuged to be deposited on the bottom of the plate. The cells were cultured in the incubator for another 40 min and then the plate was read on Acumen.
The remaining cells were diluted and then plated in a 96-well plate, and 100 uL of cells and 50 uL of a compound at 3-fold concentration were added to each well for further culturing until day 14, and the cell viability was detected as described above. The IC50 was calculated.

[5] = tested on: Pfeiffer cells; assay: Experiment on Pfeiffer cell proliferation (CellTiter-Glo); format: cell-based, human; conditions: Homo sapiens
Description: 90 uL of cells were added to each well of a 96-well plate at 12000 cells/well, and cell-free culture medium was added to blank control wells. The plate was incubated overnight in an incubator at 37° C., 5% CO2 and 100% relative humidity. The compounds were diluted from highest to lowest concentration gradient with DMSO to make stock solutions at 400-fold and 10-fold concentration. 10 μL of 10× compound working solution was added to the cell culture plate, and the total concentration of the compound was detected from 10 μM, 9 concentration points in total, and 3-fold serial dilution was performed. 10 μL of DMSO-cell culture medium mixture solution was added to the vehicle control wells and blank control wells. The final concentration of DMSO was 0.25%. The plate was put back in the incubator for another 7 days of culturing.
The cell culture plate cultured for 7 days was taken out of the incubator, and the suspended cells in the 96-well plate were mixed well by pipetting multiple times. 74 uL of fresh cell culture medium was added to a new 96-well plate, and 16 uL of cell suspension was pipetted from the 96-well plate with cells mixed well by pipetting into the new 96-well plate to bring the total volume to 90 uL. Cells in the new 96-well plate were treated with the compound. The new 96-well plate was put back in the incubator for another 7 days of culturing, and then cell viability was detected directly.
84 μL of cell suspension was taken from the cell culture plate for cell viability detection.
CellTiter-Glo buffer and substrate were thawed and balanced to room temperature. The CellTiter-Glo buffer was added to a bottle of CellTiter-Glo substrate to dissolve the substrate, thereby preparing CellTiter-Glo working solution. The bottle was subjected to slow vortex shaking to completely dissolve the substrate. The cell culture plate was taken out and balanced to room temperature for 30 min. 50 μL of CellTiter-Glo working solution was added to each well. The cell plate was wrapped with aluminum foil to keep out of light. The plate was shaken on an orbital shaker for 2 min to induce cell lysis. The plate was placed at room temperature for 10 min to stabilize the luminescence signals. The luminescence signals were detected on 2104 En Vision plate reader.
Inhibition rates of compounds at different concentrations were calculated in Excel, followed by plotting the inhibition curves and calculating relevant parameters including minimum (%), maximum (%), and absolute IC50 using GraphPad Prism software.

[6] = In vivo pharmacokinetic properties in mice; design: species or system mouse; conditions: male ICR mice
Summary of the method: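 Male ICR mice, n=3 per group, dosed once at 5 mg/kg IV in 10% DMSO/90% (20% Captisol) or 250 mg/kg intragastrically in 0.5% CMC-Na/0.1% Tween 80 (pH 3-4). EDTA-K2 plasma sampled from 5 min to 24 h; compound levels measured by LC-MS/MS.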

[7] = tested on: subcutaneous xenograft tumor model of human B lymphocyte Pfeiffer; assay: In vivo efficacy in subcutaneous xenograft tumor model of human B lymphocyte Pfeiffer; design: species or system mouse; conditions: SCID Beige mice, 100 mg/kg p.o. QD 21 days, tumor volume 21 days after administration
Description: Human B lymphocyte strain Pfeiffer was cultured in vitro, in a monolayer way, in a RPMI-1640 medium containing 10% fetal bovine serum, 100 U/mL penicillin and 100 μg/mL streptomycin in an incubator at 37° C./5% CO2. Conventional medium refreshment and subculturing were carried out twice a week, and cells in logarithmic growth phase were collected and used for tumor inoculation after being counted.
Female SCID Beige mice, aged 6-8 weeks and weighed 18-22 g were used in the experiment. The experiment started after 7-day adaptive feed.
Each mouse was inoculated subcutaneously with 10×10^6 Pfeiffer cells in a volume of 0.2 mL in the right side of the neck. The cells were suspended with PBS and matrigel (volume ratio 1:1). After the average tumor volume reached 130 mm^3, the mice were divided into groups with 8 mice per group for administration. The administration volume was 10 uL/g and the dose was 100 mg/kg if there's no special labeling ((p.o. administration, QD, continuous administration for 21 days).
Animal body weights were measured twice weekly and animal mortality and side effects within each group were recorded based on the number of animals in the group.
The experimental indices were to investigate whether tumor growth was inhibited or delayed or the tumor was cured. Tumor diameters were measured twice weekly using a vernier caliper. The tumor volume was calculated according to the following formula: V=0.5 a×b^2, where a and b represent the long diameter and short diameter of the tumor, respectively. The tumor growth inhibitions (TGIs) of the compounds were evaluated by T/C (%). The percentage value of T/C (%) is an index for reflecting the tumor growth inhibition, where T and C represent the average tumor volume of the administration group and the control group, respectively, at a certain day.
The tumor growth inhibition rate was calculated according to the following formula: TGI (%)=(1−(Ti−T0)/(Vi−V0))×100, where Ti is the average tumor volume of a certain administration group on a certain day, T0 is the average tumor volume of the administration group at the start of administration, Vi is the average tumor volume of the vehicle control group on a certain day (same day as Ti) and V0 is the average tumor volume of the vehicle control group at the start of administration.
Relative tumor volumes at each time point for each group were statistically analyzed and differences among groups were assessed based on the data. The statistical method used for testing was one-way ANOVA.

EZH2 (Y641N), sequence (Q15910 whole entry Y641N): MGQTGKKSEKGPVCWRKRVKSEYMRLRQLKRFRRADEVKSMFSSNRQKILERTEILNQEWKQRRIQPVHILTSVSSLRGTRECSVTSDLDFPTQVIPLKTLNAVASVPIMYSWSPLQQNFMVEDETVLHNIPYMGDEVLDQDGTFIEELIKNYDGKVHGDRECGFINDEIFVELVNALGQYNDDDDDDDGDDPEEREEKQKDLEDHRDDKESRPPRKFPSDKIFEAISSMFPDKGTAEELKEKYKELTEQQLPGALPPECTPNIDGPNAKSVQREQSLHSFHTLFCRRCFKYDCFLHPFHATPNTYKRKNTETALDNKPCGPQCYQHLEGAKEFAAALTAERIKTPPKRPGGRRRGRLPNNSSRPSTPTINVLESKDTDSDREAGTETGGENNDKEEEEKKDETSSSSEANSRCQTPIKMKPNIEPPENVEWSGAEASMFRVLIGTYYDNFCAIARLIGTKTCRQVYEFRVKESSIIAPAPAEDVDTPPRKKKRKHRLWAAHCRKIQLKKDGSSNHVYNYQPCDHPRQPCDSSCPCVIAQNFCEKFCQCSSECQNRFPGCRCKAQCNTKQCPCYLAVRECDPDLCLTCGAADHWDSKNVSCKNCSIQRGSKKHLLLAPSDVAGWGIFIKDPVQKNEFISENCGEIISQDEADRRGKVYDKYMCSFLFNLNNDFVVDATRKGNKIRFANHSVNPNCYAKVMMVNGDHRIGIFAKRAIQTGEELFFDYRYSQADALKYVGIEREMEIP
EZH2 (Y641N), sequence (O75530 whole entry partner): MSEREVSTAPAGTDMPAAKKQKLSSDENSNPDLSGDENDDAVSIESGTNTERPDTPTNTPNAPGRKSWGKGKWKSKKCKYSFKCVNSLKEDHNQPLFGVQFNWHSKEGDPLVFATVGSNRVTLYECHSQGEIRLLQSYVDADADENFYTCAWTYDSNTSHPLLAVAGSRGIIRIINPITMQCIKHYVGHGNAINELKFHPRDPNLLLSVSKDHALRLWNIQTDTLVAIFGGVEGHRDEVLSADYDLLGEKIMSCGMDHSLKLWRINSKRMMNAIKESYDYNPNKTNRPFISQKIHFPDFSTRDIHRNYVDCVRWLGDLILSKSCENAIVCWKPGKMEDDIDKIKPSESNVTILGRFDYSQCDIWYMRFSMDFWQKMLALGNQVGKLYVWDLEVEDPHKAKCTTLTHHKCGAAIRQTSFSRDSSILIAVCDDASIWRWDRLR
EZH2 (Y641N), sequence (Q15022 whole entry partner): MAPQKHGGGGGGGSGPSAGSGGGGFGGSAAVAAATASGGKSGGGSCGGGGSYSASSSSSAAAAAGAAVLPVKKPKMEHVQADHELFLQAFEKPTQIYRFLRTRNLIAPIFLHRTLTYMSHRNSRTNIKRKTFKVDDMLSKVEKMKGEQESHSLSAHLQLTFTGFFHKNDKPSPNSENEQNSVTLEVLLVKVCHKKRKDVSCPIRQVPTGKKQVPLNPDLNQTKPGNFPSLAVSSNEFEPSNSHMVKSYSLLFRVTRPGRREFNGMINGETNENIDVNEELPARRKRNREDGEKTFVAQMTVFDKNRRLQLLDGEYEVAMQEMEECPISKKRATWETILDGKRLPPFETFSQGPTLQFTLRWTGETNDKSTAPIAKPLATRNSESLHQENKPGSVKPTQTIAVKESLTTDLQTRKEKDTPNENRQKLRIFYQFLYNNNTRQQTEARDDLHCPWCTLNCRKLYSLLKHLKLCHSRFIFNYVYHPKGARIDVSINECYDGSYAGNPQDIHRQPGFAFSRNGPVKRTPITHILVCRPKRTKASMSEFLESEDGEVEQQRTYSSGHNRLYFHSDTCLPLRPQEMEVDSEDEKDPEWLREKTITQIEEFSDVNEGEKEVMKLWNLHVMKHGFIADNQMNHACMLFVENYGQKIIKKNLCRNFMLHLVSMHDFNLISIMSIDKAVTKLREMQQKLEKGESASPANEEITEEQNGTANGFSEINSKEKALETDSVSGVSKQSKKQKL
EZH2 (Y641F), sequence (Q15910 whole entry Y641F): as the sequence (Q15910 whole entry Y641N) above, with N641F counted along it
EZH2 (Y641F), sequence (O75530 whole entry partner): as the sequence (O75530 whole entry partner) above
EZH2 (Y641F), sequence (Q15022 whole entry partner): as the sequence (Q15022 whole entry partner) above
EZH2 (wt), sequence (Q15910 whole entry): as the sequence (Q15910 whole entry Y641N) above, with N641Y counted along it
EZH2 (wt), sequence (O75530 whole entry partner): as the sequence (O75530 whole entry partner) above
EZH2 (wt), sequence (Q15022 whole entry partner): as the sequence (Q15022 whole entry partner) above

## CCN(c1cc(O[C@H]2C[C@H](N3C[C@@H](C)O[C@@H](C)C3)C2)cc(C(=O)NCc2c(OC)cc(C)[nH]c2=O)c1C)C1CCC(F)(F)CC1 [Example 87, 3-((4,4-difluorocyclohexyl)(ethyl)amino)-5-(trans-3-(cis-2,6-dimethylmorpholino)cyclobutoxy)-N-((4-methoxy-6-methyl-2-oxo-1,2-dihydropyridin-3-yl)methyl)-2-methylbenzamide]
[1]
  IC50: 2.6 nM
[2]
  IC50: 5.5 nM
[3]
  IC50: 1.2 nM
[4]; WSUDLCL2, 168 h, WSU-DLCL2, Day 7, read-out: IC50 WSU-DLCL2 proliferation Day 7
  IC50: 40 nM
[4]; WSUDLCL2, 336 h, WSU-DLCL2, Day 14, read-out: IC50 WSU-DLCL2 proliferation Day 14
  IC50: 9 nM
[5]; 168 h, Day 7, read-out: IC50 Pfeiffer proliferation Day 7
  IC50: 20 nM
[5]; 336 h, Day 14, read-out: IC50 Pfeiffer proliferation Day 14
  IC50: 4.3 nM
[6]; intragastric 250 mg/kg vs intravenous 5 mg/kg
  F: 35.4%
[6]; single intravenous 5 mg/kg and intragastric 250 mg/kg study
  CL: 31.0 ± 2.82 mL/min/lg
[6]; mouse, plasma, oral, single intravenous 5 mg/kg and intragastric 250 mg/kg study
  AUC(0-inf): 47800 ng·h/mL
[6]; mouse, plasma, oral, single intravenous 5 mg/kg and intragastric 250 mg/kg study, read-out: Cmax
  Cmax: 10600 ± 4150 ng/mL
[6]; mouse, plasma, oral, single intravenous 5 mg/kg and intragastric 250 mg/kg study, read-out: Tmax
  Tmax: 0.83 ± 0.29 h
[6]; mouse, plasma, single intravenous 5 mg/kg and intragastric 250 mg/kg study
  half-life: 5.77 ± 1.51 h
[7]
  TGI: 42.84%
